Key:
Assay type in all cases: in vivo
[1] = tested on: slender amaranth (Amaranthus viridis L.); test: Test Example 3: herbicidal effect by application to upland field (foliage treatment); conditions: foliage treatment, 1,000 g active ingredient per 1 hectare, 14th day after application, greenhouse
Procedure, shortened: (§1)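 Sow in field soil; grow 2 weeks in greenhouse; spray foliage from above with wettable-powder dilution (1,000 g AI/ha, 1,000 L/ha); return to greenhouse; score effect at day 14 against a standard.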

[2] = tested on: velvetleaf (Abutilon theophrasti medicus); test: as above; conditions: foliage treatment, 1,000 g active ingredient per 1 hectare, 14th day after application, greenhouse
Procedure, shortened: as §1

[3] = tested on: barnyardgrass (Echinochloa crus-galli (L.) P. Beauv. var. crus-galli); test: as above; conditions: foliage treatment, 1,000 g active ingredient per 1 hectare, 14th day after application, greenhouse
Procedure, shortened: as §1

[4] = tested on: green foxtail (Setaria viridis (L.) P. Beauv.); test: as above; conditions: foliage treatment, 1,000 g active ingredient per 1 hectare, 14th day after application, greenhouse
Procedure, shortened: as §1

[5] = tested on: heartshape false pickerelweed (Monochoria vaginalis (Burm.f.) C.Presl); test: Test Example 1: herbicidal effect by soil application to paddy field; conditions: paddy field soil application; active ingredient 1,000 g per 1 hectare; wettable powder added dropwise to water surface the day after sowing; examined on the 21st day after application
Procedure, shortened: (§2)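 Plants were sown in flooded (3 cm) paddy soil and evaluated for herbicidal effect 21 days after soil application in a greenhouse.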

[6] = tested on: Japanese bulrush (Scirpus juncoides Roxb.); test: as above; conditions: paddy field soil application; active ingredient 1,000 g per 1 hectare; wettable powder added dropwise to water surface the day after sowing; examined on the 21st day after application
Procedure, shortened: as §2

[7] = tested on: early watergrass (Echinochloa oryzicola Vasing); test: as above; conditions: paddy field soil application; active ingredient 1,000 g per 1 hectare; wettable powder added dropwise to water surface the day after sowing; examined on the 21st day after application
Procedure, shortened: as §2

[8] = tested on: slender amaranth (Amaranthus viridis L.); test: Test Example 2: herbicidal effect by soil application to upland field; conditions: soil surface spray, upland field soil, 1,000 g active ingredient per hectare, 21st day after application
Procedure, shortened: (§3)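 Pre-emergence soil test: seeds sown in pots of field soil, then wettable-powder formulation sprayed on soil surface at 1,000 g active ingredient per hectare in 1,000 L water per hectare. Plants grown in greenhouse; herbicidal effect scored on a standard scale at day 21.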

[9] = tested on: velvetleaf (Abutilon theophrasti medicus); test: as above; conditions: soil surface spray, upland field soil, 1,000 g active ingredient per hectare, 21st day after application
Procedure, shortened: as §3

[10] = tested on: barnyardgrass (Echinochloa crus-galli (L.) P. Beauv. var. crus-galli); test: as above; conditions: soil surface spray, upland field soil, 1,000 g active ingredient per hectare, 21st day after application
Procedure, shortened: as §3

[11] = tested on: green foxtail (Setaria viridis (L.) P. Beauv.); test: as above; conditions: soil surface spray, upland field soil, 1,000 g active ingredient per hectare, 21st day after application
Procedure, shortened: as §3

| SMILES | herbicidal effect, Slender Amaranth [1] | herbicidal effect, Velvetleaf [2] | herbicidal effect, Barnyardgrass [3] | herbicidal effect, Green Foxtail [4] | herbicidal effect, Monochoria vaginalis (Burm. f.) C. Presl [5] | herbicidal effect, Scirpus juncoides Roxb. [6] | herbicidal effect, Echinochloa oryzicola Vasing [7] | herbicidal effect (index), Slender Amaranth [8] | herbicidal effect (index), Velvetleaf [9] | herbicidal effect (index), Barnyardgrass [10] | herbicidal effect (index), Green Foxtail [11] |
| --- | --- | --- | --- | --- | --- | --- | --- | --- | --- | --- | --- |
| CC1=NOC(Cn2c(C(F)(F)F)ccc(C(=O)C3=C(O)CCCC3=O)c2=O)C1 (centres unmarked) [I-126] | 5 (90% or more of herbicidal effect and crop phytotoxicity) | 5 (90% or more of herbicidal effect and crop phytotoxicity) | 5 (90% or more of herbicidal effect and crop phytotoxicity) | 5 (90% or more of herbicidal effect and crop phytotoxicity) | 5 (90% or more of herbicidal effect and crop phytotoxicity) | 5 (90% or more of herbicidal effect and crop phytotoxicity) | 5 (90% or more of herbicidal effect and crop phytotoxicity) | 5 (90% or more of herbicidal effect and crop phytotoxicity) | 5 (90% or more of herbicidal effect and crop phytotoxicity) | 5 (90% or more of herbicidal effect and crop phytotoxicity) | 5 (90% or more of herbicidal effect and crop phytotoxicity) |
| CS(=O)(=O)CCn1c(C(F)(F)F)ccc(C(=O)C2=C(O)C3CCC(C3)C2=O)c1=O (centres unmarked) [III-30] | 5 (90% or more of herbicidal effect and crop phytotoxicity) | 5 (90% or more of herbicidal effect and crop phytotoxicity) | 5 (90% or more of herbicidal effect and crop phytotoxicity) | 5 (90% or more of herbicidal effect and crop phytotoxicity) | – | – | – | 5 (90% or more of herbicidal effect and crop phytotoxicity) | 5 (90% or more of herbicidal effect and crop phytotoxicity) | 5 (90% or more of herbicidal effect and crop phytotoxicity) | 5 (90% or more of herbicidal effect and crop phytotoxicity) |
| CCCn1c(C(F)(F)F)c(C)cc(C(=O)c2cnn(C)c2O)c1=O [IV-241] | – | – | – | – | 5 (90% or more of herbicidal effect and crop phytotoxicity) | 5 (90% or more of herbicidal effect and crop phytotoxicity) | 5 (90% or more of herbicidal effect and crop phytotoxicity) | 5 (90% or more of herbicidal effect and crop phytotoxicity) | 5 (90% or more of herbicidal effect and crop phytotoxicity) | 4 (70 to less than 90% of herbicidal effect and crop phytotoxicity) | 3 (50 to less than 70% of herbicidal effect and crop phytotoxicity) |
| Cn1c(C(F)(F)F)ccc(C(=O)C2=C(O)C3C=CC(C3)C2=O)c1=O (centres unmarked) [III-42] | – | – | – | – | 5 (90% or more of herbicidal effect and crop phytotoxicity) | 5 (90% or more of herbicidal effect and crop phytotoxicity) | 5 (90% or more of herbicidal effect and crop phytotoxicity) | 5 (90% or more of herbicidal effect and crop phytotoxicity) | 5 (90% or more of herbicidal effect and crop phytotoxicity) | 4 (70 to less than 90% of herbicidal effect and crop phytotoxicity) | 3 (50 to less than 70% of herbicidal effect and crop phytotoxicity) |
| CCCS(=O)(=O)Oc1c(C(=O)c2ccc(C(F)(F)F)n(-c3ccc(F)c(COC)c3)c2=O)cnn1C [IV-94] | – | – | – | – | 5 (90% or more of herbicidal effect and crop phytotoxicity) | 5 (90% or more of herbicidal effect and crop phytotoxicity) | 5 (90% or more of herbicidal effect and crop phytotoxicity) | 5 (90% or more of herbicidal effect and crop phytotoxicity) | 5 (90% or more of herbicidal effect and crop phytotoxicity) | 5 (90% or more of herbicidal effect and crop phytotoxicity) | 4 (70 to less than 90% of herbicidal effect and crop phytotoxicity) |
| CCCS(=O)(=O)Oc1c(C(=O)c2ccc(C(F)(F)F)n(-c3ccc([N+](=O)[O-])cc3)c2=O)cnn1C [IV-68] | – | – | – | – | 5 (90% or more of herbicidal effect and crop phytotoxicity) | 4 (70 to less than 90% of herbicidal effect and crop phytotoxicity) | 4 (70 to less than 90% of herbicidal effect and crop phytotoxicity) | 5 (90% or more of herbicidal effect and crop phytotoxicity) | 5 (90% or more of herbicidal effect and crop phytotoxicity) | 4 (70 to less than 90% of herbicidal effect and crop phytotoxicity) | 4 (70 to less than 90% of herbicidal effect and crop phytotoxicity) |
| C=CCn1c(C(F)(F)F)ccc(C(=O)C2=C(O)C(C)(C)C(=O)C(C)(C)C2=O)c1=O [II-42] | 5 (90% or more of herbicidal effect and crop phytotoxicity) | 5 (90% or more of herbicidal effect and crop phytotoxicity) | 5 (90% or more of herbicidal effect and crop phytotoxicity) | 3 (50 to less than 70% of herbicidal effect and crop phytotoxicity) | – | – | – | 5 (90% or more of herbicidal effect and crop phytotoxicity) | 5 (90% or more of herbicidal effect and crop phytotoxicity) | 5 (90% or more of herbicidal effect and crop phytotoxicity) | 3 (50 to less than 70% of herbicidal effect and crop phytotoxicity) |
| O=C1CCCC(O)=C1C(=O)c1ccc(C(F)(F)F)n(Cc2cc(Cl)nc(Cl)c2)c1=O [I-124] | – | – | – | – | 5 (90% or more of herbicidal effect and crop phytotoxicity) | 5 (90% or more of herbicidal effect and crop phytotoxicity) | 5 (90% or more of herbicidal effect and crop phytotoxicity) | 5 (90% or more of herbicidal effect and crop phytotoxicity) | 5 (90% or more of herbicidal effect and crop phytotoxicity) | 5 (90% or more of herbicidal effect and crop phytotoxicity) | 5 (90% or more of herbicidal effect and crop phytotoxicity) |
| CC(=O)Oc1c(C(=O)c2ccc(C(F)(F)F)n(-c3cc([N+](=O)[O-])ccc3F)c2=O)cnn1C [IV-89] | – | – | – | – | 5 (90% or more of herbicidal effect and crop phytotoxicity) | 4 (70 to less than 90% of herbicidal effect and crop phytotoxicity) | 4 (70 to less than 90% of herbicidal effect and crop phytotoxicity) | 4 (70 to less than 90% of herbicidal effect and crop phytotoxicity) | 5 (90% or more of herbicidal effect and crop phytotoxicity) | 5 (90% or more of herbicidal effect and crop phytotoxicity) | 4 (70 to less than 90% of herbicidal effect and crop phytotoxicity) |
| CCCS(=O)(=O)Oc1c(C(=O)c2ccc(C(F)(F)F)n(-c3ccc(F)c(F)c3)c2=O)cnn1C [IV-87] | – | – | – | – | 5 (90% or more of herbicidal effect and crop phytotoxicity) | 5 (90% or more of herbicidal effect and crop phytotoxicity) | 5 (90% or more of herbicidal effect and crop phytotoxicity) | 5 (90% or more of herbicidal effect and crop phytotoxicity) | 5 (90% or more of herbicidal effect and crop phytotoxicity) | 5 (90% or more of herbicidal effect and crop phytotoxicity) | 5 (90% or more of herbicidal effect and crop phytotoxicity) |
| CCCS(=O)(=O)Oc1c(C(=O)c2ccc(C(F)(F)F)n(CC3CCCO3)c2=O)cnn1CC (centres unmarked) [IV-207] | – | – | – | – | 5 (90% or more of herbicidal effect and crop phytotoxicity) | 5 (90% or more of herbicidal effect and crop phytotoxicity) | 5 (90% or more of herbicidal effect and crop phytotoxicity) | 5 (90% or more of herbicidal effect and crop phytotoxicity) | 5 (90% or more of herbicidal effect and crop phytotoxicity) | 5 (90% or more of herbicidal effect and crop phytotoxicity) | 5 (90% or more of herbicidal effect and crop phytotoxicity) |
